Results: patent US8859819B2, “Sulphurated derivatives of resorcinol, preparation of same and cosmetic uses thereof” (Pierre Fabre Dermo-Cosmetique, priority 2009, dated 2014)
Like-named read-outs stand apart in the source and are kept apart here.

What was measured:
mushroom tyrosinase = molecular target: T1, mushroom tyrosinase (Agaricus bisporus, UniProt C7FF04); assay: Tyrosinase inhibition test (in vitro acellular depigmenting activity); type: biochemical; settings: for Tyrosinase depigmenting activity result: class symbol, assay from 250 to 150 μM, overall tyrosinase activity (MPMOg), L-tyrosine substrate
T1 construct: purchased Sigma T-3824
T1 sequence (C7FF04 1-392 limits assumed): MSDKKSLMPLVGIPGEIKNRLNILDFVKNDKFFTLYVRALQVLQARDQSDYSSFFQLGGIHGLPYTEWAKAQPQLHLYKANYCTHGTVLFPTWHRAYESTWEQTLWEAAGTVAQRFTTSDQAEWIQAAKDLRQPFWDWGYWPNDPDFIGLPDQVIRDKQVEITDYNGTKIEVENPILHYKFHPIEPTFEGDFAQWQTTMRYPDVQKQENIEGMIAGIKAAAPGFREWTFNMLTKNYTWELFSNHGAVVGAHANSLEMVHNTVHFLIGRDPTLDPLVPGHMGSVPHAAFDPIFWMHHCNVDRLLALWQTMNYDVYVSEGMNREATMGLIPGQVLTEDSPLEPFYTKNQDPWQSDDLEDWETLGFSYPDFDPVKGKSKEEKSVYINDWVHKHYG
Source text: A) Determination of the Depigmenting Activity in an in vitro Acellular Test: Tyrosinase Inhibition Test)
This test is used to evaluate the depigmenting activity of the molecules tested. Tyrosinase is a limiting enzyme in melanogenesis.
It belongs to the family of oxydoreductases. It has in particular the function: monophenol monooxygenase (MPMO) and polyphenol oxidase (PPO).
It is synthesised at the level of the melanocytes. It is activated during its migration towards melanosome […]. It transforms tyrosine into DOPA then dopaquinone, which leads in fine to a polymerisation, i.e. a production of pigments (see diagram below).
The substrate: L-tyrosine, is transformed into L-DOPA by the monophenol mono oxygenase function which is transformed by the polyphenol oxidase function from tyrosinase into dopaquinone. The latter is going to self-oxidise into dopachrome which is measured by spectrophotometry at 490 nm.
More precisely, it is the overall tyrosinase activity (MPMOg) which is measured since it is the dopachrome in fine that is assayed. Thus the products tested on MPMOg (=measurement of the activity on PPO and MPMO) can cumulate the inhibition of the 2 functions, • inhibiting uniquely the MPMO function stricto sensus (transformation of tyrosine into DOPA) as a complement to the PPO test, • could inhibit PPO uniquely. General Experimental Conditions:

B16-F10 cells = assay: Melanin assay test in B16-F10 cells; type: cell-based, murine
Experimental: B) Melanin Assay Test in B16-F10 Cells:
This involves a test of measuring the synthesis of melanin by colorimetric assay on a murine melanoma cell line: the B16-F10 line. This test makes it possible to evaluate the depigmenting power of active ingredients.
The B16-F10 cells are cultured in 96-well plates in DMEM medium supplemented with FCS (foetal calf serum), and incubated for 24 hours at 37° C., 5% CO2. The cells are then stimulated with 0.1 μM α-MSH (to stimulate the synthesis of melanin, the stimulation observed is around 150%) and treated for 72 hours with the active ingredients to be tested. Each concentration of active ingredient is tested at least in triplicate. The total melanin followed by the intracellular melanin dissolved in the lysis buffer are then assayed by absorbance reading at 405 nm. The total proteins are assayed in the lysate and the results are expressed in mg melanin/mg proteins. The percentage of activity is calculated as follows: […]
A negative value indicates an inhibition, whereas a positive value indicates an induction of the synthesis of melanin.
• B16-F10 cell line between P10 and P20 (murine melanocytes) (ATCC, CRL-6475)
Reagents: • DMEM without phenol red (GibcoBRL, 31053-028), 200 mM Glutamax-I Supplement (GibcoBRL, 35050-038), D-PBS (GibcoBRL, 14190-094), Foetal calf serum (Invitrogen, 10270-098), Trypsine-EDTA (GibcoBRL, 25300-054), NaOH (Sigma, S8045-500G), DMSO (Sigma, 471267-1L), Nle, Phe—Melanocyte Stimulating Hormone (Sigma, M-8764), Melanin (Sigma, M-0418), BCA-Copper (Sigma, B9643 and C2284), BSA (Sigma, P0914) C) Test for the Study of the Antioxidant Capacity by Chemiluminescence (Photochem Analytik Jena) Principle: […]

[1] = Antioxidant capacity by chemiluminescence (Photochem Analytik Jena); settings: Trolox equivalent; lower = stronger antioxidant
Experimental: This test is used to determine the antioxidant capacity of the molecules. It is a method that generates free radicals by a photochemical signal. The intensity of the oxidation is 1000 times greater than that obtained under normal conditions.
The detection is carried out by chemiluminescence. It enables the evaluation of hydrosoluble and liposoluble anti-oxidant molecules or extracts.
The results are expressed respectively in equivalent quantity of vitamin C or Trolox (6-hydroxy-2,5,7,8-tetramethylchroman-2-carboxylic acid). The sensitivity is of the order of a nanomole.
The antioxidant activity studied in this test represents the capacity to trap specifically superoxide anions by chemiluminescence.
The quantified results are expressed in Trolox equivalent (standard), i.e. in “μg of product for 1 μg of Trolox”. This signifies that a quantity×of sample is needed to obtain an activity equivalent to the activity detected for 1 μg of standard. It is an anti-oxidant power relative to a reference, which makes it possible to disregard the concentration tested.
The superoxide radical: 02^0− is generated by a photochemical reaction: L+hv (UV)+O2→L*O2→L^0++O2^0−
A part of the superoxide anions is quenched by the anti-oxidants. The remaining free radicals are quantified by chemiluminescence. L^0++O2^0−→N2+AP*^2−→AP^2−+hv (luminescence)

[2] = Protection of linoleic acid following a UV stress (Fenton conditions, MDA-TBA assay); parameters: % Protection Linoleic acid under UV/Fenton: concentration or dose not given beside the values; settings: UV + H2O2 + iron II
Source text: D) Test of Protection of Linoleic Acid Following a UV Stress. Target: Protection of Linoleic Acid Under Fenton Conditions, UV Irradiation Linoleic acid belongs to the family of polyunsaturated fatty acids (PUFA) (AGPI). Sensitive to oxidation, linoleic acid is a favoured target for oxygenated free radicals (OFR) in biological media. When biological membranes are exposed to an oxidative stress, the components the most affected are the phospholipids constituted of PUFA and cholesterol. Their degradation leads to lipidic peroxidation and generally to destructuring. Lipidic peroxidation is a self-catalysing process which generally involves OFR. Lipidic peroxidation is in part responsible for skin ageing. The method employed to evaluate lipid peroxidation is based on the coupling of thiobarbituric acid (TBA) and secondary degradation products leading to coloured compounds detectable by spectrofluorometry. The essential secondary compound of final degradation is malondialdehyde, MDA. MDA is a carcinogenic and mutagenic aldehyde, it acts on proteins and DNA. The sample to be tested is placed in contact with linoleic acid in a weight/weight ratio. The sample undergoes an MED (Minimal Erythemal Dose) irradiation under Fenton conditions, namely in the presence of H202 and iron II in a solar simulator. Following irradiation, the reaction mixture is taken up in methanol and derivatised at 90° C. with TBA. Chromogene, the MDA-TBA complex, representative of the equimolar production of MDA is assayed by fluorimetry (excitation at 525 nm, emission at 549 nm). The results are expressed in fluorescence units, as a function of a MDA-TBA control range then expressed as concentration of the MDA-TBA complex. Then, the percentage of the starting MDA/linoleic acid (LA) ratio is determined. Then the percentage of protection of linoleic acid is determined. The product assay is expressed as weight/weight ratio, in other words in weight percentage with respect to the total quantity of linoleic acid. The maximal MDA level is determined by the condition UV+H202+iron II (F). The percentage of protection of linoleic acid represents: the % ratio of MDA under maximal stress conditions untreated over the % of MDA under stress conditions treated by the product.

[3] = Mus musculus, B16-F10, 50 μM, α-MSH stimulated, 72 hours, negative value = inhibition of melanin synthesis, read-out: B16 activity results -% at X μM
[4] = Mus musculus, B16-F10, 72 h, read-out: B16 activity results -% at X μM

| Compound | Tyrosinase depigmenting activity result (mushroom tyrosinase) | inhibition at 50 µM (B16-F10 cells; [3]) | μg of sample for 1 μg of Trolox [1] | % Protection Linoleic acid under UV/Fenton [2] | inhibition at 20 µM (B16-F10 cells; [4]) | inhibition at 10 µM (B16-F10 cells; [4]) | inhibition at 50 µM (B16-F10 cells; [4]) | inhibition at 92 µM (B16-F10 cells; Mus musculus, B16-F10, 92 μM, α-MSH stimulated, 72 hours, negative value = inhibition, read-out: B16 activity results -% at X μM) | B16 activity results -% at X μM (B16-F10 cells; 14 μM, α-MSH stimulated, 72 hours, negative value = inhibition) | IC50 (mushroom tyrosinase) | inhibition at 73 µM (B16-F10 cells; Mus musculus, B16-F10, 73 μM, α-MSH stimulated, 72 hours, negative value = inhibition, read-out: B16 activity results -% at X μM) |
| --- | --- | --- | --- | --- | --- | --- | --- | --- | --- | --- | --- |
| CCCCCCCCOc1ccc(Sc2ccc(O)cc2O)c(O)c1 [Example 8, 4-(2-hydroxy-4-(octyloxy)phenylthio)benzene-1,3-diol] | + + + |  | 18.8 μg of sample for 1 μg of Trolox | 97% |  | 40% |  |  |  |  |  |
| CC(C)=CCOc1cc(O)ccc1Sc1ccc(O)cc1O [Example 3, 4-(4-hydroxy-2-(3-methylbut-2-enyloxy)phenylthio)benzene-1,3-diol] | + + + |  | 4.7 μg of sample for 1 μg of Trolox | 87% | 41% |  |  |  |  |  |  |
| CCCCCCCCNC(=O)Oc1cc(O)ccc1Sc1ccc(O)cc1O [Example 24, 2-(2,4-dihydroxyphenylthio)-5-hydroxyphenyl octylcarbamate] | + + + |  | 3.8 μg of sample for 1 μg of Trolox | 97% |  |  | 26% |  |  |  |  |
| Oc1ccc(Sc2ccc(O)cc2OCc2ccccc2)c(O)c1 [Example 9, 4-(2-(benzyloxy)-4-hydroxyphenylthio)benzene-1,3-diol] | + + + |  | 3.2 μg of sample for 1 μg of Trolox | 85% | 31% |  |  |  |  |  |  |
| CC(C)=CCC/C=C(\C)CC/C(C)=C/COc1cc(O)ccc1Sc1ccc(O)cc1O [Example 2, 4-(4-hydroxy-2-((2E,6E)-3,6,11-trimethyldodcca-2,6,10-trienyloxy)phenylthio)benzene-1,3-diol] | + + |  | 9.7 μg of sample for 1 μg of Trolox | 92% |  |  |  |  | −50% (14 μM) |  |  |
| CC(C)=CCC/C(C)=C/COc1cc(O)ccc1Sc1ccc(O)cc1O [Example 4, (E)-4-(2-(3,7-dimethylocta-2,6-dienyloxy)-4-hydroxyphenylthio)benzene-1,3-diol] | + + + |  | 5.2 μg of sample for 1 μg of Trolox | 89% |  | 35% |  |  |  |  |  |
| [O-][S+](c1ccc(O)cc1O)c1ccc(O)cc1O [Example 25, 4,4′sulphinyldibenzene-1,3-diol] | + + + |  | 73 μg of sample for 1 μg of Trolox | 79% |  |  |  |  |  | 12 µM | 50% |

The next lines start with results.

| Tyrosinase depigmenting activity result (mushroom tyrosinase) | Compound | inhibition at 50 µM (B16-F10 cells; [3]) | μg of sample for 1 μg of Trolox [1] | % Protection Linoleic acid under UV/Fenton [2] | inhibition at 20 µM (B16-F10 cells; [4]) | inhibition at 10 µM (B16-F10 cells; [4]) | inhibition at 50 µM (B16-F10 cells; [4]) | inhibition at 92 µM (B16-F10 cells; Mus musculus, B16-F10, 92 μM, α-MSH stimulated, 72 hours, negative value = inhibition, read-out: B16 activity results -% at X μM) | B16 activity results -% at X μM (B16-F10 cells; 14 μM, α-MSH stimulated, 72 hours, negative value = inhibition) | IC50 (mushroom tyrosinase) | inhibition at 73 µM (B16-F10 cells; Mus musculus, B16-F10, 73 μM, α-MSH stimulated, 72 hours, negative value = inhibition, read-out: B16 activity results -% at X μM) |
| --- | --- | --- | --- | --- | --- | --- | --- | --- | --- | --- | --- |
| + + + | O=C(CCc1ccccc1)Oc1ccc(Sc2ccc(O)cc2O)c(O)c1 [Example 18, 4-(2,4-dihydroxyphenylthio)-3-hydroxyphenyl 3-phenylpropanoate] | 20% | 24.1 μg of sample for 1 μg of Trolox | 90% |  |  |  |  |  |  |  |
| + + + | Oc1ccc(Sc2ccc(OCc3ccccc3)cc2O)c(O)c1 [Example 10, 4-(4-(benzyloxy)-2-hydroxyphenylthio)benzene-1,3-diol] |  | 22 μg of sample for 1 μg of Trolox | 94% | 20% |  |  |  |  |  |  |
| + + + | CC(C)CC(=O)Oc1ccc(Sc2ccc(O)cc2O)c(O)c1 [Example 20, 4-(2,4-dihydroxyphenylthio)-3-hydroxyphenyl 3-methylbutanoate] | 24% | 25.6 μg of sample for 1 μg of Trolox | 91% |  |  |  |  |  |  |  |
| + + + | CC(C)CC(=O)Oc1cc(O)ccc1Sc1ccc(O)cc1O [Example 19, 2-(2,4-dihydroxyphenylthio)-5-hydroxyphenyl 3-methylbutanoate] | 20% | 2.8 μg of sample for 1 μg of Trolox | 88% |  |  |  |  |  |  |  |
| + + + | O=C(CCc1ccccc1)Oc1cc(O)ccc1Sc1ccc(O)cc1O [Example 17, 2-(2,4-dihydroxyphenylthio)-5-hydroxyphenyl 3-phenylpropanoate] |  | 3.9 μg of sample for 1 μg of Trolox | 87% |  |  |  | 50% |  |  |  |
| + + | CCCCCCCC(=O)Oc1cc(O)ccc1Sc1ccc(O)cc1O [Example 15, 2-(2,4-dihydroxyphenylthio)-5-hydroxyphenyl octanoate] |  | 30 μg of sample for 1 μg of Trolox | 75% |  | 20% |  |  |  |  |  |
| + + + | COc1ccc(COc2cc(O)ccc2Sc2ccc(O)cc2O)cc1 [Example 11, 4-(4-hydroxy-2-(4-methoxybenzyloxy)phenylthio)benzene-1,3-diol] |  | 3.5 μg of sample for 1 μg of Trolox | 91% | 34% |  |  |  |  |  |  |
